Read-outs that look alike come from different tables or passages of the source.
Assays:
Factor XIa = Factor XIa (Homo sapiens, UniProt P03951); test: Factor XIa inhibition assay utilizing a fluorophore-quencher pair peptide substrate (FLINT); format: biochemical
Text: Biological Example 1: Factor XIa Inhibition Assay Utilizing a Fluorophore-Quencher Pair Peptide Substrate
A fluorescence intensity (FLINT) based assay was used to monitor inhibition of Factor XIa. The peptide substrate, 5Fam-KLTRAETV-K5Tamra (purchased from New England Peptide) was chosen based on the […]. Conversion of zymogen […]. The custom peptide used in this assay was based on the Arg146 cleavage site of FXI. The peptide substrate was designed with a fluorophore-quencher pair, where the fluorescence is quenched until FXIa cleaves the 8-mer peptide after the Arg residue. The substrate KM was fit to a substrate inhibition model whereby kcat=0.86 s^−1, KM=12.4 μM, Ki=61.6 μM with an enzymatic efficiency, and kcat/KM=69523 M^−1s^−1.
The Factor XIa FLINT assay was used with the following 5Fam-KLTRAETV-K5Tamra assay buffer: 50 mM Tris, pH 7.5, 100 mM NaCl, 5 mM CaCl2, 0.1 mg/mL BSA, 0.03% CHAPS. Assay buffer was prepared by mixing all ingredients fresh. 5Fam-KLTRAETV-K5Tamra peptide substrate was first prepared at 10 mM in 100% DMSO, then diluted to 3 mM in 100% DMSO. Assay buffer was then added directly to the 3 mM stock of substrate to prepare the 30 μM 2× working concentration (15 μM final concentration). The 2× Factor XIa stock solution was prepared by diluting 6.562 μM stock in 1× assay buffer for a […].
Test compound(s) were run in an 11-point, 3-fold serial dilution with a final top compound concentration of 100 nM. Final DMSO in assay was 2%. FXIa was preincubated with compound for 30-minutes and then substrate was added to initiate the reaction. The assay was run with either end point (EP) reads at 30 min or kinetic (KIN) reads at 5 min intervals over 30 minutes. The time course was linear using 100 μM FXIa greater than 30 minutes. More specifically, the assay was run as follows: • 100 nL of 0.01 mM test compound was dispensed into black 384-well non-binding Greiner BioOne 784900 plate for 0.1 μM final concentration; • 5 μL of 1× assay buffer was dispensed to column 24 (low control) and 5 μL 2× Factor XIa solution was dispensed to columns 1-23 (column 23 high control); • the plate was centrifuged with a “cover” plate at 500 rpm for 1 min • the plate was pre-incubated for 30 minutes at room temperature with plate covered; • 5 μL of 2× 5Fam-KLTRAETV-K5Tamra peptide substrate was dispensed into the entire plate, columns 1-24; • the plate was centrifuged with a “cover” plate at 500 rpm for 1 min; • the plate was read monitoring fluorescence intensity on the BMG PHERAStar at room temperature, using fluorescence module 485 nm/520 nm.
(§1) Percent inhibition (IC50) curves were generated per compound tested, and data was analyzed using a 4-parameter logistic fit using GeneData Screener. The relative fluorescence unit (RFU) values were normalized to percent inhibition using the following equation:
[formula] • where LC—low control=mean signal of no Factor XIa or 100% inhibition of Factor XIa; HC—high control=mean signal of Factor XIa+5Fam-KLTRAETV-K5Tamra peptide substrate with DMSO only.
(§2) An 11-point dose response curve for the test compound(s) was generated using GENDATA to determine IC50 value based on the following equation:
(§3) [formula] • where Y is the % inhibition in the presence of X inhibitor concentration, Top=high control=mean signal of Factor XIa+5Fam-KLTRAETV-K5Tamra peptide substrate with DMSO only; Bottom=low control—mean signal of no Factor XIa or 100% inhibition of Factor XIa; HillSlope—Hill coefficient; and IC50=concentration of compound with 50% inhibition in relation to top/high control.
Representative compounds of formula (I) of the present invention were tested according to the procedure described in Biological Example 1 and Biological Example 2 above, with results as listed in Table 3, below. […]

human plasma kallikrein = human plasma kallikrein (Homo sapiens, UniProt P03952); test: Kallikrein inhibition assay utilizing a quenched AMC peptide substrate (FLINT); format: biochemical
Procedure: Biological Example 2: Kallikrein Inhibition Assay Utilizing a Quenched AMC Peptide Substrate
A fluorescence intensity (FLINT) based assay was used to monitor inhibition of human plasma kallikrein. The peptide substrate, Z-Gly-Pro-Arg-AMC (Purchased from Bachem; Catalog #I-1150) was chosen based on its relatively low KM for kallikrein which enables running the assay at lower substrate concentrations to control background fluorescence. The kinetic parameters for this substrate were determined by fitting titration data to the Michaelis-Menten equation yielding a KM=40 μm, kcat=0.76 s^−1, and kcat/KM=18932 M^−1s^−1.
The Kallikrein FLINT assay was used with the following Z-Gly-Pro-Arg-AMC assay buffer: 50 mM Tris, pH 7.5, 100 mM NaCl, 5 mM CaCl2, 0.1 mg/mL BSA, 0.03% CHAPS. Assay buffer was prepared by mixing all ingredients fresh. 2× Z-Gly-Pro-Arg-AMC peptide substrate was prepared by diluting 10 mM stock into 1× assay buffer for a 100 μM working concentration (50 μM final concentration). The 2× kallikrein stock solution was prepared by diluting 14.76 μM stock in 1× assay buffer for a 4 nM working stock solution (2 nM final concentration).
Test compound(s) were run in an 11-point, 3-fold serial dilution with a final top compound concentration of 1 μM. Final DMSO in assay was 2%. Plasma kallikrein was pre-incubated for 30-minute with compound and then 50 μM substrate was added to initiate the reaction. The assay was run with either end point (EP) reads at 30 min or kinetic (KIN) reads at 5 min intervals over 30 minutes. The time course was linear using 2 nM kallikrein greater than 30 minutes. More specifically, the assay was run as follows: • 100 nL of 0.1 mM test compound was dispensed into black 384-well non-binding Greiner BioOne 784900 plate for 1 μM final concentration; • 5 μL of 1× assay buffer was dispensed to columns 24 (low control) and 5 μL 2× human kallikrein enzyme solution was dispensed to columns 1-23 (column 23 high control); • the plate was centrifuged with a “cover” plate at 500 rpm for 1 min • the plate was pre-incubated for 30 minutes at room temperature with plate covered; • 5 μL of 2× Z-Gly-Pro-Arg-AMC peptide substrate was dispensed into the entire plate, columns 1-24; • the plate was centrifuged with a “cover” plate at 500 rpm for 1 min; • the plate was read monitoring fluorescence intensity on the BMG PHERAStar at room temperature, using fluorescence module 340 nm/440 nm.
as §1
% inhibition=((HC−LC)−(compound−LC)/(HC−LC))*100 • where LC—low control=mean signal of human kallikrein enzyme or 100% inhibition of human kallikrein enzyme; HC—high control=mean signal of Factor XIa+Z-Gly-Pro-Arg-AMC peptide substrate with DMSO only.
as §2
as §3, with “Y=Bottom+(Top−Bottom)/(1+10^((log IC50−X)*HillSlope))” for “[formula]”, “human kallikrein enzyme+Z-Gly-Pro-Arg-AMC” for “Factor XIa+5Fam-KLTRAETV-K5Tamra”, “human kallikrein enzyme” for “Factor XIa”, “human kallikrein enzyme;” for “Factor XIa;”
Representative compounds of formula (I) of the present invention were tested according to the procedure described in Biological Example 1 and Biological Example 2 above, with results as listed in Table 3, below. Results listed in the (ER) column were measured using endpoint reads where a single fluorescence reading was measured for each well at a 30 min timepoint. […]

[1] = kinetic reads at 5 min intervals over 30 min, 30 min preincubation, read-out: FXIa (KIN) IC50
[2] = kinetic reads, unit μM, read-out: Kallikrein (KIN) IC50
[3] = kinetic reads at 5 min intervals over 30 min, 30 min preincubation, read-out: Kallikrein (KIN) IC50
[4] = end point read at 30 min, 30 min preincubation, read-out: FXIa (EP) IC50
[5] = end point read at 30 min, 30 min preincubation, read-out: Kallikrein (EP) IC50

Factor XIa, sequence (P03951 388-625 limits assumed): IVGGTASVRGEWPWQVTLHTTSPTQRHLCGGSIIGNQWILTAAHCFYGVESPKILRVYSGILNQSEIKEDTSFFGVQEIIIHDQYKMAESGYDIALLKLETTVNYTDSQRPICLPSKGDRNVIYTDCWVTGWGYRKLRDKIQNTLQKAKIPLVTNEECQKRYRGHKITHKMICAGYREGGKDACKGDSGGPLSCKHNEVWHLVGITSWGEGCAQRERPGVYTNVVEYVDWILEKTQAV
Factor XIa, sequence (P03951 19-387 partner limits assumed): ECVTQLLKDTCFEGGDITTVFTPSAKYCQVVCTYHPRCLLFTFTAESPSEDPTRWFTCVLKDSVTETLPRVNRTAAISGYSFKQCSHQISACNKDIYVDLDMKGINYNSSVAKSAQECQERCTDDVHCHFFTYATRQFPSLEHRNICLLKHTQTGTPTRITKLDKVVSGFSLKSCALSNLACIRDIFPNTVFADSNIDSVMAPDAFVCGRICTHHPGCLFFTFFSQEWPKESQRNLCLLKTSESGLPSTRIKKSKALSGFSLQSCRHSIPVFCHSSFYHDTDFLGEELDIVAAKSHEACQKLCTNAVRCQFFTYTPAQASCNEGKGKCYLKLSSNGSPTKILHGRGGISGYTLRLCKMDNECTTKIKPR
human plasma kallikrein, sequence (P03952 391-638 limits assumed): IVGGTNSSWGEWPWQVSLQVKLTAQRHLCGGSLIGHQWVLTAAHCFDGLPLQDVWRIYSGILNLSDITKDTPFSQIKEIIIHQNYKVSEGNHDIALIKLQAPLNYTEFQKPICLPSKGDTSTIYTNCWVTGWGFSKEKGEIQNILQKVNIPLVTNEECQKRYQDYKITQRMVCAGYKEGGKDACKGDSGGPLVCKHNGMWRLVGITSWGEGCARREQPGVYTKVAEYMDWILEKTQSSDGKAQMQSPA
human plasma kallikrein, sequence (P03952 20-390 partner limits assumed): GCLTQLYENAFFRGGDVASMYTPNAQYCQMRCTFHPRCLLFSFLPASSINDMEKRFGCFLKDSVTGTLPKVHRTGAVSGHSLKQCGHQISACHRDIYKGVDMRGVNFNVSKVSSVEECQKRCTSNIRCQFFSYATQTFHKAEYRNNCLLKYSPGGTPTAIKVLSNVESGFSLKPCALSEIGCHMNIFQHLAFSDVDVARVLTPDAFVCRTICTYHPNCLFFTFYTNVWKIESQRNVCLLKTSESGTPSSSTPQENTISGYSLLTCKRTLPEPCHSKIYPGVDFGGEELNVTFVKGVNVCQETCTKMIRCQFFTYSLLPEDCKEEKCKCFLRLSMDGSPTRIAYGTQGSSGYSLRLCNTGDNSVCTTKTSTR

Compound | IC50 (Factor XIa; [1]) [µM] | IC50 (human plasma kallikrein; [2]) [µM] | further results
[O-][n+]1cc(-c2c(-n3cnnn3)ccc(Cl)c2F)ccc1[C@H](CCOC(F)F)n1cnc(-c2cnnn2C(F)F)c1 [M13, (S)-5-(3-Chloro-2-fluoro-6-(1H-tetrazol-1-yl)phenyl)-2-(3-(difluoromethoxy)-1-(4-(1-(difluoromethyl)-1H-1,2,3-triazol-5-yl)-1H-imidazol-1-yl)propyl)pyridine 1-oxide] | > 0.2 | > 2 | 
Cn1nncc1-c1cn([C@@H](CCOC(F)F)c2ccc(-c3c(-n4cc(Cl)nn4)ccc(Cl)c3F)c[n+]2[O-])cn1 [M11, (S)-5-(3-Chloro-6-(4-chloro-1H-1,2,3-triazol-1-yl)-2-fluorophenyl)-2-(3-(difluoromethoxy)-1-(4-(1-methyl-1H-1,2,3-triazol-5-yl)-1H-imidazol-1-yl)propyl)pyridine 1-oxide] | > 0.2 | > 20 | 
[O-][n+]1cc(-c2c(-n3cc(C(F)(F)F)nn3)ccc(Cl)c2F)ccc1[C@@H](CCOC(F)F)n1cnc(-c2ncnn2C(F)F)c1 [M7, (R)-5-(3-Chloro-2-fluoro-6-(4-(trifluoromethyl)-1H-1,2,3-triazol-1-yl)phenyl)-2-(3-(difluoromethoxy)-1-(4-(1-(difluoromethyl)-1H-1,2,4-triazol-5-yl)-1H-imidazol-1-yl)propyl)pyridine 1-oxide] | ~0.033 |  | IC50 (human plasma kallikrein; [3]): 0.338 µM
[O-][n+]1cc(-c2c(-n3cc(C(F)(F)F)nn3)ccc(Cl)c2F)ccc1[C@H](CCOC(F)F)n1cnc(-c2ncnn2C(F)F)c1 [M6, (S)-5-(3-Chloro-2-fluoro-6-(4-(trifluoromethyl)-1H-1,2,3-triazol-1-yl)phenyl)-2-(3-(difluoromethoxy)-1-(4-(1-(difluoromethyl)-1H-1,2,4-triazol-5-yl)-1H-imidazol-1-yl)propyl)pyridine 1-oxide] |  | > 10 | IC50 (Factor XIa; kinetic reads, unit μM printed in the cell, read-out: FXIa (KIN) IC50): > 10 µM
[2H]C([2H])([2H])n1nccc1-c1cn(C(CCOC(F)F)c2ccc(-c3c(-n4cc(C(F)(F)F)nn4)ccc(Cl)c3F)c[n+]2[O-])cn1 (single isomer, unassigned) [M15, (R*)-5-(3-Chloro-2-fluoro-6-(4-(trifluoromethyl)-1H-1,2,3-triazol-1-yl)phenyl)-2-(3-(difluoromethoxy)-1-(4-(1-(methyl-d3)-1H-pyrazol-5-yl)-1H-imidazol-1-yl)propyl)pyridine 1-oxide] | > 0.1 | > 1 | 
O=C(N[C@H]1C[C@H](O)C1)c1ccc(-c2cn(C(CC3CC3)c3ccc(-c4cc(Cl)ccc4-n4cnnn4)c[n+]3[O-])cn2)cc1 (mixture of isomers) [M2, 5-(5-Chloro-2-(1H-tetrazol-1-yl)phenyl)-2-(2-cyclopropyl-1-(4-(4-(((1R,3R)-3-hydroxycyclobutyl)carbamoyl)phenyl)-1H-imidazol-1-yl)ethyl)pyridine 1-oxide] |  |  | IC50 (Factor XIa; [4]): 0.1 µM; IC50 (human plasma kallikrein; [5]): 1.36 µM
O=C(NC1CC1)c1ccc(-c2cn(C(CC3CC3)c3ccc(-c4cc(Cl)ccc4-n4cnnn4)c[n+]3[O-])nn2)cc1 (stereo not shown) [T2, 5-(5-Chloro-2-(1H-tetrazol-1-yl)phenyl)-2-(2-cyclopropyl-1-(4-(4-(cyclopropylcarbamoyl)phenyl)-1H-1,2,3-triazol-1-yl)ethyl)pyridine 1-oxide] |  |  | IC50 (Factor XIa; [4]): 0.0381 µM; IC50 (human plasma kallikrein; [5]): 0.367 µM
O=C(O)c1ccc(-c2cn(C(CC3CC3)c3ccc(-c4cc(Cl)ccc4-n4cnnn4)c[n+]3[O-])cn2)cc1 (stereo not shown) [M1, 2-(1-(4-(4-Carboxyphenyl)-1H-imidazol-1-yl)-2-cyclopropylethyl)-5-(5-chloro-2-(1H-tetrazol-1-yl)phenyl)pyridine 1-oxide] |  |  | IC50 (Factor XIa; [4]): 0.0071 µM; IC50 (human plasma kallikrein; [5]): 0.306 µM

Further lines, with some results ahead:

IC50 (Factor XIa; [1]) [µM] | IC50 (human plasma kallikrein; [2]) [µM] | Compound | further results
~0.0023 |  | Cn1ncnc1-c1cn(C(CCOC(F)F)c2ccc(-c3c(-n4cc(C(F)(F)F)nn4)ccc(Cl)c3F)c[n+]2[O-])nn1 (stereo not shown) [T7, 5-(3-Chloro-2-fluoro-6-(4-(trifluoromethyl)-1H-1,2,3-triazol-1-yl)phenyl)-2-(3-(difluoromethoxy)-1-(4-(1-methyl-1H-1,2,4-triazol-5-yl)-1H-1,2,3-triazol-1-yl)propyl)pyridine 1-oxide] | IC50 (human plasma kallikrein; [3]): ~0.334 µM
0.001 |  | COC(=O)Nc1ccc(-c2cn(C(CC3CC3)c3ccc(-c4c(-n5cnnn5)ccc(Cl)c4F)c[n+]3[O-])nn2)cc1 (single isomer, unassigned) [T4, (S*)-5-(3-Chloro-2-fluoro-6-(1H-tetrazol-1-yl)phenyl)-2-(2-cyclopropyl-1-(4-(4-((methoxycarbonyl)amino)phenyl)-1H-1,2,3-triazol-1-yl)ethyl)pyridine 1-oxide] | IC50 (human plasma kallikrein; [3]): 0.0149 µM
0.308 | > 10 | Cn1nncc1-c1cn([C@@H](CC2CC2)c2ccc(-c3c(-n4cnnn4)ccc(Cl)c3F)c[n+]2[O-])nn1 [T5, (S)-5-(3-Chloro-2-fluoro-6-(1H-tetrazol-1-yl)phenyl)-2-(2-cyclopropyl-1-(3′-methyl-1H,3′H-[4,4′-bi(1,2,3-triazol)]-1-yl)ethyl)pyridine 1-oxide] | 

Reference: patent US20240228465A1, “SUBSTITUTED PYRIDINE N-OXIDE DERIVATIVES USEFUL AS A FACTOR XIA INHIBITORS” (Janssen Pharmaceutica NV, priority 2021, published 2024)
